Measured values reported in PubChem BioAssay (NCI).
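Following 48 hours of exposure in 96-well plates, responses at five concentrations were used to interpolate endpoints linearly. GI50 = concentration required for 50% inhibition of growth. The concentration for full growth arrest is given as TGI.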

Columns and labels:
Test in all cases: growth of human tumour cells (NCI), 48 h
HS 578T breast = test system: HS 578T breast
ACHN renal = test system: ACHN renal
SNB-19 CNS = test system: SNB-19 CNS
NCI-H226 lung = test system: NCI-H226 lung
MALME-3M melanoma = test system: MALME-3M melanoma
UO-31 renal = test system: UO-31 renal
M14 melanoma = test system: M14 melanoma
T-47D breast = test system: T-47D breast
HOP-62 NSCLC = test system: HOP-62 NSCLC
RXF 393 renal = test system: RXF 393 renal

SMILES	TGI (HS 578T breast)	TGI (ACHN renal)	TGI (SNB-19 CNS)	TGI (NCI-H226 lung)	TGI (MALME-3M melanoma)	TGI (UO-31 renal)	TGI (M14 melanoma)	TGI (T-47D breast)	TGI (HOP-62 NSCLC)	TGI (RXF 393 renal)	GI50 (ACHN renal)	GI50 (SNB-19 CNS)	GI50 (UO-31 renal)	GI50 (M14 melanoma)
CC(C)Nc1[nH]c(C(=O)c2ccccc2)c(N)c1C(=S)Nc1ccccc1	> 100 µM	> 100 µM	> 100 µM	> 100 µM	43.8 µM	> 100 µM	48.5 µM	> 100 µM	> 100 µM					
ClC(Cl)(Cl)C1CCOC1n1nc2ccccc2n1 (centres undefined)	> 100 µM			> 100 µM	> 100 µM		> 100 µM	> 100 µM	> 100 µM	> 100 µM				
N#Cc1ncn(-c2ccccc2)c1N	> 100 µM	> 100 µM	> 100 µM	> 100 µM	> 100 µM	> 100 µM	> 100 µM	> 100 µM	> 100 µM					
Cc1cn(CC2=NCCN2)c(=O)[nH]c1=O	> 100 µM	> 100 µM	> 100 µM	> 100 µM	> 100 µM	> 100 µM	> 100 µM	> 100 µM	> 100 µM	> 100 µM				
COc1cc2c(cc1OC)C1Cc3ccccc3CCN1CC2 (centres undefined)	> 100 µM	> 100 µM	> 100 µM	> 100 µM	> 100 µM	> 100 µM	> 100 µM	> 100 µM	> 100 µM					
COc1cc2cc(Oc3ccc(NC(=O)Nc4ccc(F)c(C(F)(F)F)c4)cc3)c(C)nc2cc1OCCN1CCCCC1		3.01 µM	3.29 µM			2.73 µM	3.53 µM				1.65 µM	1.76 µM	1.41 µM	1.81 µM
COc1ncnc2c1cnn2Cc1cn(COCC(O)CO)nn1 (centres undefined)		> 100 µM	> 100 µM	> 100 µM		> 100 µM	> 100 µM	> 100 µM	> 100 µM					
CCOC(=O)c1ncoc1[C@H]1COC(C)(C)O1		> 100 µM	> 100 µM	> 100 µM	> 100 µM	> 100 µM	> 100 µM		> 100 µM	> 100 µM				
O=C1Nc2cccc3ncn(c23)C2=C1CCCC2		> 100 µM	> 100 µM		> 100 µM	> 100 µM				> 100 µM				
Cc1nc2c(o1)C(=O)c1ccccc1C2=NC1CCCCC1N (centres undefined)	2.76 µM	2 µM	2.1 µM	3.75 µM	0.275 µM	3 µM	1.53 µM	1.86 µM	2.3 µM					
Cn1c(=O)n2n(c1=O)Cc1cccc3cccc(c13)C2	> 100 µM	> 100 µM	> 100 µM	> 100 µM	> 100 µM	> 100 µM	> 100 µM	> 100 µM		> 100 µM				
S=C(NNC1=NCCCN1)Nc1ccccc1	> 100 µM	> 100 µM	> 100 µM	> 100 µM	> 100 µM	> 100 µM		> 100 µM	> 100 µM	> 100 µM				
CC1=C2C(=O)O[C@@H](c3ccoc3)[C@]2(C)CCC1=O		> 100 µM	> 100 µM	> 100 µM		> 100 µM	> 100 µM	> 100 µM	> 100 µM					
O=C1C=C(N2CCCC2)C=C(N2CCCC2)C1		> 100 µM	> 100 µM	> 100 µM	> 100 µM	> 100 µM	> 100 µM		> 100 µM	> 100 µM				
O=C(O)C(CS)NCc1c2ccccc2[n+]([O-])c2ccccc12 (centres undefined)		> 100 µM	> 100 µM	> 100 µM	> 100 µM	66.3 µM	> 100 µM		> 100 µM					
CCN(CC)CCNC(=O)c1ccc([N+](=O)[O-])cc1OC		> 100 µM	> 100 µM	> 100 µM	> 100 µM	> 100 µM	> 100 µM		> 100 µM	> 100 µM				
O=[N+]([O-])c1cccc(N=C2c3ccccc3CN2c2cccc([N+](=O)[O-])c2)c1	> 100 µM	> 100 µM	> 100 µM	> 100 µM		> 100 µM	> 100 µM	> 100 µM	> 100 µM	> 100 µM				
COC(=O)C1Cc2ccc(C)cc2C1=O (centres undefined)	> 100 µM	> 100 µM	> 100 µM	> 100 µM	> 100 µM	> 100 µM	> 100 µM	> 100 µM	> 100 µM					
CCOC(=O)C1(Cc2ccccc2)Cc2cc3c(cc2C1)CCC3	> 100 µM	> 100 µM	> 100 µM	76.8 µM	> 100 µM	> 100 µM	> 100 µM	> 100 µM	> 100 µM					
COC(=O)C1Cc2c([nH]c3ccccc23)C(c2cccc(O)c2)N1 (centres undefined)	> 100 µM	> 100 µM	> 100 µM	> 100 µM		> 100 µM	47.4 µM	> 100 µM	> 100 µM	55.4 µM				
CC12CC3CC/C(=N\O)C(C1)C3(N1CCOCC1)C/C2=N/O (centres undefined)		> 100 µM	> 100 µM	> 100 µM	> 100 µM	> 100 µM	> 100 µM	> 100 µM	> 100 µM	> 100 µM				
Cc1cc2nc(N3C(=O)/C(=C/c4cccc([N+](=O)[O-])c4)N=C3c3ccccc3)sc2cc1C	> 100 µM	> 100 µM	> 100 µM			> 100 µM	> 100 µM	> 100 µM	> 100 µM	58 µM				
Cc1ccc(S(=O)(=O)N2CCCSCCSCCCSCC2)cc1			> 100 µM			> 100 µM	> 100 µM	> 100 µM	> 100 µM					
O=C1/C(=C\c2ccc([N+](=O)[O-])cc2)Sc2scc(-c3ccc(O)c(O)c3)[n+]21	63.7 µM	47.5 µM	74 µM	> 100 µM		22.3 µM	27.4 µM	54.6 µM	27.5 µM					
CCOC(=O)c1cccc(NC(=O)CBr)c1	5.28 µM	3.09 µM	16.6 µM	2.8 µM	4.22 µM	1.96 µM	2.75 µM		3.41 µM	3.24 µM				
